Tests used:
Conditions in all cases: incubation time: 72 h
[1] = system: BT-549; test: drug sensitivity score (DSS), CellTiter-Blue viability (DSS (AUC-based score)); higher = stronger viability inhibition; extreme values may be limits of the assay
Procedure, shortened: (§1)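 Into 384-well plates carrying compound in a 5- or 9-concentration series went 20 µl of breast cancer cell suspension, followed by 72 h of incubation. Adding 2.5 µl CellTiter-Blue per well and incubating 2 h at 37 °C preceded fluorescence measurement at 560/590 nm. After normalisation of each plate to 0.1 % DMSO and a positive kill control, dose-response curves were fitted and the area beneath them taken as the drug sensitivity score.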

[2] = system: CAL-120; test: as above
Procedure, shortened: as §1

[3] = system: CAL-148; test: as above
Procedure, shortened: as §1

[4] = system: CAL-51; test: as above
Procedure, shortened: as §1

[5] = system: CAL-85-1; test: as above
Procedure, shortened: as §1

[6] = system: HCC1143; test: as above
Procedure, shortened: as §1

[7] = system: HCC1599; test: as above
Procedure, shortened: as §1

[8] = system: HCC1937; test: as above
Procedure, shortened: as §1

[9] = system: HDQ-P1; test: as above
Procedure, shortened: as §1

[10] = system: Hs578T; test: as above
Procedure, shortened: as §1

[11] = system: MDA-MB-231; test: as above
Procedure, shortened: as §1

[12] = system: MDA-MB-453; test: as above
Procedure, shortened: as §1

[13] = system: MDA-MB-468; test: as above
Procedure, shortened: as §1

[14] = system: MFM-223; test: as above
Procedure, shortened: as §1

[15] = system: SK-BR-3; test: as above
Procedure, shortened: as §1

[16] = system: BT-549; test: drug sensitivity score (DSS), CellTox Green (DSS (AUC-based score)); higher = stronger drug effect (viability inhibition or cytotoxicity); extreme values may be limits of the assay
Procedure, shortened: (§2)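 For 72 h, breast cancer cell lines seeded at 20 µl suspension per well in 384-well plates were incubated with compound at 5 concentrations in 10-fold steps spanning a 10,000-fold range that differed by compound. The first reading was CellTox Green fluorescence at 485/520 nm, and the second was CellTiter-Glo luminescence after 10 min at room temperature. Both were normalised per plate to 0.1 % DMSO and a positive kill control, and the drug sensitivity score was obtained from the area under the fitted dose-response curve.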

[17] = system: CAL-120; test: as above
Procedure, shortened: as §2

[18] = system: CAL-51; test: as above
Procedure, shortened: as §2

[19] = system: DU-4475; test: as above
Procedure, shortened: as §2

[20] = system: HCC1599; test: as above
Procedure, shortened: as §2

[21] = system: HDQ-P1; test: as above
Procedure, shortened: as §2

[22] = system: MCF-10A; test: as above
Procedure, shortened: as §2

[23] = system: MDA-MB-436; test: as above
Procedure, shortened: as §2

[24] = system: MDA-MB-453; test: as above
Procedure, shortened: as §2

[25] = system: MDA-MB-468; test: as above
Procedure, shortened: as §2

[26] = system: MFM-223; test: as above
Procedure, shortened: as §2

| Compound | drug sensitivity score [1] | drug sensitivity score [2] | drug sensitivity score [3] | drug sensitivity score [4] | drug sensitivity score [5] | drug sensitivity score [6] | drug sensitivity score [7] | drug sensitivity score [8] | drug sensitivity score [9] | drug sensitivity score [10] | drug sensitivity score [11] | drug sensitivity score [12] | drug sensitivity score [13] | drug sensitivity score [14] | drug sensitivity score [15] | drug sensitivity score [16] | drug sensitivity score [17] | drug sensitivity score [18] | drug sensitivity score [19] | drug sensitivity score [20] | drug sensitivity score [21] | drug sensitivity score [22] | drug sensitivity score [23] | drug sensitivity score [24] | drug sensitivity score [25] | drug sensitivity score [26] |
| --- | --- | --- | --- | --- | --- | --- | --- | --- | --- | --- | --- | --- | --- | --- | --- | --- | --- | --- | --- | --- | --- | --- | --- | --- | --- | --- |
| C=C(c1ccc(C(=O)O)cc1)c1cc2c(cc1C)C(C)(C)CCC2(C)C [Bexarotene] | 0 | 0 | 1.2 | 0 | 0 | 0 | 0 | 2.11 | 0 | 0 | 0 | 0 | 0 | 0 | 0 | 0 | 0 | 0 | 0 | 0 | 0 | 0 | 0 | 0 | 0 | 0 |
| CNCc1ccc(-c2[nH]c3cc(F)cc4c3c2CCNC4=O)cc1 [Rucaparib] | 0 | 0 | 1.96 | 1.41 | 0 | 0 | 0 | 6.08 | 0 | 0 | 2.45 | 2.23 | 0 | 1.28 | 0 | 0 | 0 | 0 | 0 | 0 | 0 | 0 | 0 | 0 | 10.6 | 0 |
| CN[C@@H]1C[C@H]2O[C@@](C)([C@@H]1OC)n1c3ccccc3c3c4c(c5c6ccccc6n2c5c31)C(=O)N[C@H]4O [UCN-01] | 22.4 | 24.2 | 7 | 20.4 | 17.3 | 22.2 | 17 | 20 | 19.9 | 29.2 | 24.5 | 18.2 | 22.4 | 14.7 | 23 | 9.46 | 9.11 | 17 | 4.48 | 0 | 14.7 | 21.6 | 0 | 1.04 | 0 | 6.67 |
| CO[C@H]1/C=C\C=C(/C)C(=O)NC2=CC(=O)C(NCCN(C)C)=C(C[C@@H](C)C[C@H](OC)[C@H](O)[C@@H](C)/C=C(\C)[C@@H]1OC(N)=O)C2=O [Alvespimycin] | 20 | 15.3 | 16.9 | 14 | 13.7 | 11.5 | 10.5 | 17.2 | 13.8 | 16.5 | 12.2 | 22.6 | 10.4 | 18.7 | 20.9 | 0 | 0.117 | 6.02 | 4.5 | 0 | 4.4 | 13 | 0 | 0.783 | 1.6 | 0 |
| Cc1ccc(-n2nc(C(C)(C)C)cc2NC(=O)Nc2ccc(OCCN3CCOCC3)c3ccccc23)cc1 [Doramapimod] | 0 | 0 | 0 | 0 | 6.15 | 0 | 0 | 0 | 0 | 0 | 0 | 0 | 0 | 0 | 0 | 0 | 0 | 0 | 0 | 0 | 0 | 0 | 2.62 | 0 | 0 | 0 |
| CCC1=C[C@@H]2CN(C1)Cc1c([nH]c3ccccc13)[C@@](C(=O)OC)(c1cc3c(cc1OC)N(C)[C@H]1[C@@](O)(C(=O)OC)[C@H](OC(C)=O)[C@]4(CC)C=CCN5CC[C@]31[C@@H]54)C2 [Vinorelbine] | 25.6 | 24.4 | 22.5 | 19.6 | 20.9 | 16.8 | 9.76 | 25.3 | 16.5 | 24.6 | 22.8 | 26.1 | 18.2 | 18.4 | 26 | 4.21 | 1.84 | 24.9 | 0 | 2.9 | 0 | 23.7 | 3.27 | 0 | 5.08 | 12.7 |
| CCC1(c2ccc(N)cc2)CCC(=O)NC1=O (configuration not stated) [Aminoglutethimide] | 0 | 0 | 0 | 0 | 0 | 0 | 0 | 0 | 0 | 0 | 0 | 0 | 0 | 0 | 0 | 0 | 0 | 0 | 0 | 0 | 0 | 0 | 0 | 0 | 0 | 0 |
| CN(C)/N=N/c1[nH]cnc1C(N)=O [Dacarbazine] | 0 | 0 | 0 | 0 | 0 | 0 | 0 | 0 | 0 | 0 | 0 | 0 | 0 | 0 | 0 | 0 | 0 | 0 | 0 | 0 | 0 | 0 | 0 | 0 | 0 | 0 |
| COc1cc2nccc(Oc3ccc(NC(=O)C4(C(=O)Nc5ccc(F)cc5)CC4)cc3)c2cc1OC [Cabozantinib] | 0 | 0 | 0.402 | 0 | 0 | 0 | 0 | 0 | 0 | 0 | 0 | 1.25 | 0 | 0 | 0 | 0 | 0 | 0 | 0 | 0 | 0 | 0 | 0 | 0 | 0 | 0 |
| COc1cc([C@@H]2c3cc4c(cc3[C@@H](O[C@@H]3O[C@@H]5CO[C@@H](C)O[C@H]5[C@H](O)[C@H]3O)[C@H]3COC(=O)[C@H]23)OCO4)cc(OC)c1O [Etoposide] | 11 | 4.94 | 10.3 | 14.5 | 2.33 | 7.4 | 2.06 | 6.25 | 3.32 | 5.23 | 3.4 | 0 | 6.16 | 0 | 11.9 | 0 | 1.57 | 9.25 | 0.895 | 0 | 0 | 0 | 0 | 0 | 7.2 | 0 |
| Oc1nc(-c2ccc(C(F)(F)F)cc2)nc2c1CSCC2 [XAV-939] | 0 | 0 | 0 | 0 | 0 | 7.23 | 0 | 0 | 0.887 | 0 | 2.73 | 0 | 0 | 0 | 0 | 0 | 0 | 0 | 0 | 0 | 3.77 | 0 | 0 | 0 | 0 | 0 |
| N[C@@H](CSC(c1ccccc1)(c1ccccc1)c1ccccc1)C(=O)O [S-trityl-L-cysteine] | 2.15 | 10.4 | 0 | 0 | 0 | 1.21 | 0 | 16.4 | 0 | 12.9 | 14.7 | 0 | 12 | 0 | 15.5 | 0 | 0 | 0 | 0 | 0 | 0 | 0 | 0 | 0 | 0 | 0 |
| Cn1c(Nc2ccc(C(F)(F)F)cc2)nc2cc(Oc3ccnc(-c4ncc(C(F)(F)F)[nH]4)c3)ccc21 [RAF265] | 5.55 | 6.51 | 0 | 3.43 | 0 | 7.68 | 0 | 4.12 | 9.94 | 1.15 | 4.5 | 0 | 0.566 | 5.45 | 0 | 9.17 | 0 | 0 | 0 | 0 | 0 | – | 0 | 0 | 0 | 2.58 |
